Measured values taken from patent US20210009564A1, “CALPAIN MODULATORS AND THERAPEUTIC USES THEREOF” (BLADE THERAPERTICS, INC., priority 2018, published 2021).

Assays:
[1] = system: Calpain activity in SH-SY5Y cells; experiment: SH-SY5Y Suc-LLVY-AMC fluorescence assay; format: cell-based; details: Homo sapiens, read-out: SH-SY5Y + AMC IC50
Human Calpain 9/NS1 = target: T1, Human Calpain 9/NS1 (Homo sapiens, UniProt O14815); experiment: Calpain inhibition, continuous fluorescence (FRET substrate) assay, calpain 9; format: biochemical; details: SensoLyte 520 FRET substrate, 25C
T1 sequence (O14815 1-690): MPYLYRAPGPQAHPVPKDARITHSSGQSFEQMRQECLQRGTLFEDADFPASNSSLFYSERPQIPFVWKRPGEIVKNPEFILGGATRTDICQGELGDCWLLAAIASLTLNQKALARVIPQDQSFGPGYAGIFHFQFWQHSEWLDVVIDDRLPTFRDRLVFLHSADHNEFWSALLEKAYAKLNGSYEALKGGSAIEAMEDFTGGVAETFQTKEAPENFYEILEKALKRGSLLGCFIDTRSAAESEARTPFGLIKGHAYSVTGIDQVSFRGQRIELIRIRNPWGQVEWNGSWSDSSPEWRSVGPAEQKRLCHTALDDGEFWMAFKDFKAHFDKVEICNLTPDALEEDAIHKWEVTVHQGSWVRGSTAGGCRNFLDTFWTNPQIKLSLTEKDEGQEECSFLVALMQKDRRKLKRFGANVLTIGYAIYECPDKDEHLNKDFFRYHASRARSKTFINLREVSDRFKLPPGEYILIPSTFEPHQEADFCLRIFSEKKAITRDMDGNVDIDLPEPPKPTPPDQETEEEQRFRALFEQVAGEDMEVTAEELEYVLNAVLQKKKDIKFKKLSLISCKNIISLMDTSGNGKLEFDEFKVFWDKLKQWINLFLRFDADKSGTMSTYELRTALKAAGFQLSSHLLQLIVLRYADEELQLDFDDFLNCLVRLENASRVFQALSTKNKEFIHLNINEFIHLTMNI
T1 sequence (P04632 1-268 partner): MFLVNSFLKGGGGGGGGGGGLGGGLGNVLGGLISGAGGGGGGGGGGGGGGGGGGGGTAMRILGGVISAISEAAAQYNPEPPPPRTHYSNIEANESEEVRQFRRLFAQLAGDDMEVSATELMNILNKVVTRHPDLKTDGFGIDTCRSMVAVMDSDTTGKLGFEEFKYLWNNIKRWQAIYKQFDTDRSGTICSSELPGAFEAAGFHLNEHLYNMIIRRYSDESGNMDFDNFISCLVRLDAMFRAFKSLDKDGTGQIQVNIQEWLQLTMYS
Procedure, shortened: (§1)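 Calpains preincubated with serially diluted inhibitors at 25 °C in 50 mM Tris pH 7.5, 100 mM NaCl, 1 mM DTT; CaCl2 plus 5-FAM/QXL 520 FRET substrate started the reaction. Fluorescence (490/520 nm) read 10 min; rates from 1-5 min slopes, IC50 from 4-parameter logistic fit.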

[2] = system: Calpain activity in SH-SY5Y cells; experiment: SH-SY5Y spectrin breakdown product (SBDP-150) western blot assay; format: cell-based; details: Homo sapiens, read-out: SH-SY5Y Spectrin IC50
Human Calpain 1/NS1 = target: T2, Human Calpain 1/NS1 (Homo sapiens, UniProt P07384); experiment: Calpain inhibition, continuous fluorescence (FRET substrate) assay, calpain 1; format: biochemical; details: SensoLyte 520 FRET substrate, 25C
T2 sequence (P07384 1-714): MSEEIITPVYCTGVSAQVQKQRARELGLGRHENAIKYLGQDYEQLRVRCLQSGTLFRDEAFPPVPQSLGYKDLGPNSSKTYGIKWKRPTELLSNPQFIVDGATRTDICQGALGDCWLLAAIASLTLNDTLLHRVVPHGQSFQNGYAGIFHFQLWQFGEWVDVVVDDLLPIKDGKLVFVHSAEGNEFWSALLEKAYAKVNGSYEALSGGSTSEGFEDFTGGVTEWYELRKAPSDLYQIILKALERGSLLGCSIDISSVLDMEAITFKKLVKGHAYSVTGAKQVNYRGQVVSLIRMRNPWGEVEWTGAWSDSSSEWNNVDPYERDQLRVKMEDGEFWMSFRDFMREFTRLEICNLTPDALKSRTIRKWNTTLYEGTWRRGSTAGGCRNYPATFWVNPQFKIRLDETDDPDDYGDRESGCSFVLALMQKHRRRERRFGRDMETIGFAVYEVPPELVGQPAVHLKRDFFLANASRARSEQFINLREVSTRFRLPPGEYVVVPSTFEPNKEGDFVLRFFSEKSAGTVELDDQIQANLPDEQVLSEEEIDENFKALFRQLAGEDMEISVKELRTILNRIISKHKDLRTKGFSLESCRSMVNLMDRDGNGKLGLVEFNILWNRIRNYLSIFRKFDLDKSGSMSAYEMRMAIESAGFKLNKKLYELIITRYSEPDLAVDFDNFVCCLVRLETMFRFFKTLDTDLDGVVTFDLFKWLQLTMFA
T2 sequence (P04632 1-268 partner): T1 sequence (P04632 1-268 partner)
Procedure, shortened: as §1

Human Calpain 2/NS1 = target: T3, Human Calpain 2/NS1 (Homo sapiens, UniProt P17655); experiment: Calpain inhibition, continuous fluorescence (FRET substrate) assay, calpain 2; format: biochemical; details: SensoLyte 520 FRET substrate, 25C
T3 sequence (P17655 1-700): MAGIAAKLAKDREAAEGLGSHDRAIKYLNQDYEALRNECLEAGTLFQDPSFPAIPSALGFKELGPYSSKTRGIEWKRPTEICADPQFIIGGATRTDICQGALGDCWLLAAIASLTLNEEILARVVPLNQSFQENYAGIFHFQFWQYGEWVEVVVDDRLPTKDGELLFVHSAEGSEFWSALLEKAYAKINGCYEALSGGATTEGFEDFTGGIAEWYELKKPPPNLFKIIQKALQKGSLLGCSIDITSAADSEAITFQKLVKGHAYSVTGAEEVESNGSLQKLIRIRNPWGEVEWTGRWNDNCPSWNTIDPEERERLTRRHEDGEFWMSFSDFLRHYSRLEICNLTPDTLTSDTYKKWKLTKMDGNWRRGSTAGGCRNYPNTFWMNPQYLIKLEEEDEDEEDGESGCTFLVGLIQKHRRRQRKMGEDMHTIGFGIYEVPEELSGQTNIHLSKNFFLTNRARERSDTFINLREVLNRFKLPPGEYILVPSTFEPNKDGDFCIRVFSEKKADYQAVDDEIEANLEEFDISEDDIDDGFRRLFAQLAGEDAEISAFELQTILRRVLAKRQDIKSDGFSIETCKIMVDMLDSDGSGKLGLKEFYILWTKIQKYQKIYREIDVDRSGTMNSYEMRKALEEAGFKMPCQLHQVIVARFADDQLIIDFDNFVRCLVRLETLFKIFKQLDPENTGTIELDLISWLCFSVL
T3 sequence (P04632 1-268 partner): T1 sequence (P04632 1-268 partner)
Procedure, shortened: as §1

[3] = SH-SY5Y cells, 100 uM Suc-LLVY-AMC
[4] = SH-SY5Y cells, 25 uM A23187, SBDP-150 western blot

Compound | IC50 [1, 3] | IC50 (Human Calpain 9/NS1) | IC50 [2, 4] | IC50 (Human Calpain 1/NS1) | IC50 (Human Calpain 2/NS1) | IC50 ([1]; SH-SY5Y) | IC50 ([2]; SH-SY5Y)
Cn1cc2c(-c3nn(C(F)F)cc3C(=O)NC(Cc3ccccc3)C(=O)C(N)=O)cccc2n1 (stereo not drawn) [Compound 61, N-(4-AMINO-3,4-DIOXO-1-PHENYLBUTAN-2-YL)-1-(DIFLUOROMETHYL)-3-(2-METHYL-2H-INDAZOL-4-YL)-1H-PYRAZOLE-4-CARBOXAMIDE] | < 10 µM | < 3 µM | < 10 µM | < 3 µM | < 3 µM |  | 
Cc1occc1-c1nn(C)cc1C(=O)NC(Cc1ccccc1)C(=O)C(N)=O (stereo not drawn) [Compound 28, N-(4-AMINO-3,4-DIOXO-1-PHENYLBUTAN-2-YL)-1-METHYL-3-(2-METHYLFURAN-3-YL)-1H-PYRAZOLE-4-CARBOXAMIDE] | < 10 µM | < 3 µM | > 25 µM | < 3 µM | < 3 µM |  | 
Cc1cc(C(=O)NC(Cc2ccccc2)C(=O)C(N)=O)nn1-c1ncc(-c2ccccc2)cn1 (stereo not drawn) [Compound 29, N-(4-AMINO-3,4-DIOXO-1-PHENYLBUTAN-2-YL)-5-METHYL-1-(5-PHENYLPYRIMIDIN-2-YL)-1H-PYRAZOLE-3-CARBOXAMIDE] |  | 3 to 10 µM |  | 3 to 10 µM | < 3 µM | < 10 µM | > 25 µM
Cn1cc(C(=O)NC(Cc2ccccc2)C(=O)C(N)=O)c(-n2cnc3cc(F)ccc32)n1 (stereo not drawn) [Compound 48, N-(4-AMINO-3,4-DIOXO-1-PHENYLBUTAN-2-YL)-3-(5-FLUORO-1H-BENZO[D]IMIDAZOL-1-YL)-1-METHYL-1H-PYRAZOLE-4-CARBOXAMIDE] | 10 to 25 µM | < 3 µM | < 10 µM | < 3 µM | < 3 µM |  | 
Cc1cc(C(=O)NC(Cc2ccccc2)C(=O)C(N)=O)n(-c2ncc(-c3ccccc3)cn2)n1 (stereo not drawn) [Compound 30, N-(4-AMINO-3,4-DIOXO-1-PHENYLBUTAN-2-YL)-3-METHYL-1-(5-PHENYLPYRIMIDIN-2-YL)-1H-PYRAZOLE-5-CARBOXAMIDE] |  | < 3 µM |  | < 3 µM | < 3 µM | > 25 µM | < 10 µM
Cn1cc(C(=O)NC(Cc2ccc(Cl)cc2)C(=O)C(N)=O)c(-c2ccccc2F)n1 (stereo not drawn) [Compound 97, N-(4-AMINO-1-(4-CHLOROPHENYL)-3,4-DIOXOBUTAN-2-YL)-3-(2-FLUOROPHENYL)-1-METHYL-1H-PYRAZOLE-4-CARBOXAMIDE] | < 10 µM | < 3 µM | < 10 µM | < 3 µM | < 3 µM |  | 
NC(=O)C(=O)C(Cc1ccccc1)NC(=O)c1cnoc1-c1cccc2c1OCO2 (stereo not drawn) [Compound 5, N-(4-AMINO-3,4-DIOXO-1-PHENYLBUTAN-2-YL)-5-(BENZO[d][1,3]DIOXOL-4-YL)ISOXAZOLE-4-CARBOXAMIDE] | < 10 µM | < 3 µM | 10 to 25 µM | < 3 µM | < 3 µM |  | 

Further lines, with some results ahead:

IC50 [1, 3] | IC50 (Human Calpain 9/NS1) | IC50 [2, 4] | IC50 (Human Calpain 1/NS1) | IC50 (Human Calpain 2/NS1) | Compound | IC50 ([1]; SH-SY5Y) | IC50 ([2]; SH-SY5Y)
10 to 25 µM | < 3 µM | < 10 µM | < 3 µM | < 3 µM | Cn1cc(C(=O)NC(Cc2ccccc2)C(=O)C(N)=O)c(-c2cccc3ccsc23)n1 (stereo not drawn) [Compound 101, N-(4-AMINO-3,4-DIOXO-1-PHENYLBUTAN-2-YL)-3-(BENZO[b]THIOPHEN-7-YL)-1-METHYL-1H-PYRAZOLE-4-CARBOXAMIDE] |  | 
< 10 µM | < 3 µM | > 25 µM | < 3 µM | < 3 µM | Cn1cc(C(=O)NC(Cc2ccccc2)C(=O)C(=O)O)c(-c2ccccc2F)n1 (stereo not drawn) [Compound 65, 3-(3-(2-FLUOROPHENYL)-1-METHYL-1H-PYRAZOLE-4-CARBOXAMIDO)-2-OXO-4-PHENYLBUTANOIC ACID] |  | 
< 10 µM | < 3 µM | > 25 µM | < 3 µM | < 3 µM | Cc1nc(-c2cccc3sccc23)c(C(=O)NC(Cc2ccccc2)C(=O)C(N)=O)o1 (stereo not drawn) [Compound 88, N-(4-AMINO-3,4-DIOXO-1-PHENYLBUTAN-2-YL)-4-(BENZO[b]THIOPHEN-4-YL)-2-METHYLOXAZOLE-5-CARBOXAMIDE] |  | 
< 10 µM | < 3 µM | 10 to 25 µM | < 3 µM | < 3 µM | Cc1cc(C(=O)NC(Cc2ccccc2)C(=O)C(N)=O)n(-c2ncc3ccccc3n2)n1 (stereo not drawn) [Compound 11, N-(4-AMINO-3,4-DIOXO-1-PHENYLBUTAN-2-YL)-3-METHYL-1-(QUINAZOLIN-2-YL)-1H-PYRAZOLE-5-CARBOXAMIDE] |  | 
< 10 µM | < 3 µM | > 25 µM | < 3 µM | < 3 µM | COC(=O)C(=O)C(Cc1ccccc1)NC(=O)c1cn(C2CC2)nc1-c1ccccc1 (stereo not drawn) [Compound 41, METHYL 3-(1-CYCLOPROPYL-3-PHENYL-1H-PYRAZOLE-4-CARBOXAMIDO)-2-OXO-4-PHENYLBUTANOATE] |  | 
> 25 µM | > 10 µM | > 25 µM | > 10 µM | > 10 µM | O=C(NC(Cc1ccccc1)C(=O)c1nc2ccccc2o1)c1nsnc1-c1ccccc1 (stereo not drawn) [Compound 86, N-(1-(BENZO[d]OXAZOL-2-YL)-1-OXO-3-PHENYLPROPAN-2-YL)-4-PHENYL-1,2,5-THIADIAZOLE-3-CARBOXAMIDE] |  | 
< 10 µM | < 3 µM | < 10 µM | < 3 µM | < 3 µM | COC(=O)C(=O)C(Cc1ccccc1)NC(=O)c1nsnc1-c1ccccc1 (stereo not drawn) [Compound 38, METHYL 2-OXO-4-PHENYL-3-(4-PHENYL-1,2,5-THIADIAZOLE-3-CARBOXAMIDO)BUTANOATE] |  | 
< 10 µM | < 3 µM | < 10 µM | < 3 µM | < 3 µM | O=C(O)C(=O)C(Cc1ccccc1)NC(=O)c1nsnc1-c1ccccc1 (stereo not drawn) [Compound 67, 2-OXO-4-PHENYL-3-(4-PHENYL-1,2,5-THIADIAZOLE-3-CARBOXAMIDO)BUTANOIC ACID] |  | 
